According to patent US5104854A (priority 1991, dated 1992):
Like-named read-outs stand apart in the source and are kept apart here. Residues, ends and D or L forms follow the SMILES beside them. No end group written: not given here.

What was measured:
[1] = system: Sindbis virus
[2] = system: viral ribonucleoprotein particles (RNP)
[3] = system: vesicular stomatitis virus; type: cell-based
[4] = system: viral nucleoprotein and matrix protein; type: cell-based, influenza virus
[5] = system: A/WSN strain of influenza virus; type: cell-based
[6] = system: Semliki Forest virus; conditions: 4 h, 1 mg/ml
[7] = system: uninfected cells; conditions: tissue culture cells
[8] = system: intracellular virus protein synthesis; type: cell-based, Sindbis virus; conditions: peptide 0.1 mg/ml

Sequence of viral ribonucleoprotein particles (RNP) (P15682 whole entry): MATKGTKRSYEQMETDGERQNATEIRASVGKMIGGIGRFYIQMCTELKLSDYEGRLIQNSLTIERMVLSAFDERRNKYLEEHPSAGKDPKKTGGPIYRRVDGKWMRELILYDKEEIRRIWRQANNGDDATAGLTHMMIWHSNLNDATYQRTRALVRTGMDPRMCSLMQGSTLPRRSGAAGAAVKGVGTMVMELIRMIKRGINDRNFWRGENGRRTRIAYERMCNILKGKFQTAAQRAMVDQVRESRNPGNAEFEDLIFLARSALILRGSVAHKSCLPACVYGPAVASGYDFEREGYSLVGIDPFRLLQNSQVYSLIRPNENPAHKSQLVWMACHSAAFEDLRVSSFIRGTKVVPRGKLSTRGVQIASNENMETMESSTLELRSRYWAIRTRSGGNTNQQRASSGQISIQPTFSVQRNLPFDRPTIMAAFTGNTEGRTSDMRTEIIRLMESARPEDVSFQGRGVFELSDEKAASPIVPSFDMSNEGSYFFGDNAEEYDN

With “N-G-S-L-Q-C-R-I-C-I-NH2 (NGSLQCRICI-NH2; cysteine pairing not given here) [HA2 (213-222), residues 213-222 at the carboxy terminus of the HA2 of A/WSN strain of influenza virus]” as the molecule, how does the “block in the release of Sindbis virus” value ([1]; 200 μg/ml) read?
The value was “no block”.

What about the “nucleoprotein in the RNP peak, % of the total cytoplasmic nucleoprotein” value [2] of the same molecule?
Its value is 19%.

What about the “block of release of vesicular stomatitis virus” value ([3]; 200 μg/ml) of the same molecule?
The value was 15%.

And the “changes in synthesis of intracellular viral nucleoprotein and matrix protein” value ([4]; increasing amounts of peptide)?
The value was “No significant changes”.

And the “Incorporation (% of control)” value ([4]; peptide level 20 μg/ml)?
The value was 110 +/-12 % of control.

And the “Incorporation (% of control)” value ([4]; peptide level 50 μg/ml)?
The value was 108 +/-12 % of control.

What about the “Incorporation (% of control)” value ([4]; peptide level 100 μg/ml) of the same molecule?
The value was 94 +/-9 % of control.

And the “Incorporation (% of control)” value ([4]; peptide level 200 μg/ml)?
The value was 83 % of control.

What about the “Incorporation (% of control)” value ([4]; peptide level 250 μg/ml) of the same molecule?
Its value is 97 % of control.

What about the “half-maximal dose, inhibition of virus particle secretion” value [5] of the same molecule?
Its value is “less than 50 μg/ml”.

And the “inhibition of release of influenza virus particles” value ([5]; 150 μg/ml peptide (RNP test))?
The value was 70%.

What about the “inhibition of release of influenza virus” value ([5]; 200 μg/ml) of the same molecule?
Its value is 90%.

What about the “block of virus particle secretion” value ([5]; 250 μg/ml (225 μM)) of the same molecule?
Its value is > 90%.

And the IC50 ([5]; read-out: half-maximal dose, inhibition of virus particle secretion)?
Its IC50 is < 45 µM.

“LTPYAL-NH2 [HEXAPEPTIDE L-T-P-Y-A-L, L-T-P-Y-A-L]” was tested. Which “Degree of Inhibition” value [6] did it give?
Its value is 36%.

Which “inhibition of influenza virus release” value ([5]; specificity tests, E2 (391-399) at 1 mg/ml in FIG. 2) does the source give for “N-G-S-L-Q-C-R-I (NGSLQCRI) [8 amino acid peptide lacking the two carboxy-terminal amino acids of HA2 (213-222)]” here?
The value was “non-inhibitory”.

What does the source list for `CCCCCCCC(=O)N[C@@H](CC(C)C)C(=O)N[C@H](C(=O)N1CCC[C@H]1C(=O)N[C@@H](Cc1ccc(O)cc1)C(=O)N[C@@H](C)C(=O)N[C@@H](CC(C)C)C(=O)N[C@@H](C)C(N)=O)[C@@H](C)O` [OCTANOYLATED HEPTAPEPTIDE L-T-P-Y-A-L-A, L-T-P-Y-A-L-A] (HELM PEPTIDE1{[CCCCCCCC(=O)[*:2]].L.T.P.Y.A.L.A.[am]}$$$$V2.0)?
effect on uninfected cells [7]: no effect; increase of inhibitory potency by addition of an octanoyl group [1]: 10 fold; effect on cells infected with vesicular stomatitis virus [3]: no effect; inhibition of vesicular stomatitis virus formation and secretion [3]: no inhibition; inhibition of intracellular virus protein synthesis [8]: no inhibition; effect on cells infected with influenza [5]: no effect
